{
  "source": "patent US8388931B2",
  "about": "“99m Tc-labeled triphenylphosphonium derivative contrasting agents and molecular probes for early detection and imaging of breast tumors” (priority 2008, dated 2013)",
  "key": {"[1]": {"assay": "Comparative study: myocardial and hepatic uptake of 99mTc-MIBI versus 99mTc-Mito10-MAG3", "format": "in vivo, rats", "details": "rats", "protocol": "(§1) ^99mTc-MIBI of clinical formulation was purchased from Bristol Myers Squibb. […] Dynamic images were acquired in identical fashion following 99mTc-MIBI injection.\nIn a comparative study, the myocardial uptake of ^99mTc-MIBI peaked at 2.70±0.4% ID/g within minutes after injection, and remained above 2.41±0.3% ID/g for at least 90 min. Comparatively, the myocardial uptake level of ^99mTc-Mito10-MAG 3 is 10, 40, and 120 fold lower than the uptake level of ^99mTc-MIBI at 3, 10 and 30 min after injection. The hepatic uptake of ^99mTc-MIBI was at 0.37±0.14% ID/g at 30 min after injection."}, "[2]": {"test_system": "DMBA-induced breast carcinoma", "assay": "In vivo gamma camera imaging of DMBA-induced breast carcinoma in rats", "parameters": "species or system rats (female Sprague Dawley)", "protocol": "The animal protocol was approved by institutional IACUC review and followed NIH guidelines. The rat model of DMBA-induced breast carcinoma was used.\nAs an initial feasibility study, rats were induced with 65 mg/kg DMBA dissolved in sesame oil via a single oral gavage to the stomach. […] Static images were acquired on a GE XRT gamma camera using a high-resolution parallel-hole collimator, 512×512 matrix size, 22.5×22.5 cm field of view, 140±15 keV energy window, 100 k counts. Unexpectedly, apart from the established palpable carcinomas, additional small (millimeter size) tumors were discovered by this imaging technique in the same animals. This finding promoted a longitudinal study to investigate the early detection of neoplastic growth using ^99mTc-Mito10-MAG3.\nSix 48-day-old female rats were injected with 65 mg/kg DMBA. At each week after DMBA induction, the rats were imaged using the following protocol. Each rat was anesthetized with 1.6% isoflurane in room air supplemented with oxygen. […] Dynamic images were continuously acquired at one frame per min for 90 min using the imaging parameters set forth hereinabove. The weekly imaging regiment was continued for all six rats until palpable tumors became detectable, which typically takes place between seven to nine weeks after the administration of DMBA. Due to the relatively short physical half-life of ^99mTc (6 hr), no residual signal, therefore, no cross-contamination is detectable from the previous injection the week before.\nas §1\nThe female Sprague Dawley rats have six pairs of mammary glands, among which glands a and b are away from the hepatic/gastrointestinal region. (FIG. 9, Panel A). Since the typical biodistribution of a lipophilic radiopharmaceutical in the abdominal region precludes reliable imaging of breast tissues below the diaphragm, mammary glands shown in Panels C, D, E and F were excluded from the data analysis. This exclusion also was based on the fact that such spatial distribution of mammary glands is irrelevant to that of the human anatomy.\nImaging data analysis was carried out using an inbuilt software, by carefully drawing a region of interest (ROI) on the tumor site to determine the radioactivity counts in the ROI. […] Radioactivity counts were determined in each ROI. Tumor-to-normal and tumor-to-muscle ratios were calculated as the count ratio between the two ROIs.\nThe rats were sacrificed by CO2 asphyxiation and the number and location of the mammary tumors were recorded at necropsy. The tumors were dissected, with the diameter and weight measured and documented. […]"}},
  "data": [
    {"compound": "CC(=O)[S+]1CC(=O)[N]2CC(=O)[N]3CC(=O)[N](CC(=O)NCCCCCCCCCC[P+](c4ccccc4)(c4ccccc4)c4ccccc4)[99Tc]321=[O].[Br-]", "note": "(stereo not drawn) [^99mTc-Mito10-MAG3]", "values": [
      {"measurement": "reduction of uptake in the myocardium compared to 99mTc-MIBI", "setting": "[1]", "value": "one to two orders of magnitude"},
      {"measurement": "uptake in small breast tumors that escaped detection by palpation", "setting": "[2]; 15 μg via tail vein, gamma camera", "value": "significant focal uptake"},
      {"measurement": "weight of small non-palpable tumor detected by imaging", "setting": "[2]; feasibility experiment, 11 weeks after DMBA induction, at dissection", "value": 18, "unit": "mg"}
    ]}
  ]
}
